Structures can show the parent of a compound that is named as a salt.
What was measured:
[1] = prodrug; WO 2007/023141; cited from earlier work
[2] = molecular target: T1, dopamine D2 receptor (Rattus norvegicus, UniProt P61169); conditions: against inhibitory effect of quinpirole on K+-stimulated [3H]dopamine release, rat striatal slices; cited from earlier work
T1 construct: from rat striatal slices; from tissue; host or cells: rat striatal slices

[3] = test system: MPTP-lesioned common marmosets; experiment: locomotor activity in MPTP-lesioned common marmosets; type: in vivo, Callithrix jacchus; conditions: for hyperactivity (3 times normal activity in naive marmosets): alone or combined
Description: All experimental work was carried out in accordance with the Animals (Scientific Procedures Act) 1986, project license nr PPL 70/4986. Administration of MPTP: […] Research Biochemical International, UK) was dissolved in 0.9% sterile saline solution and administered by subcutaneous (sc) injection (Pearce, et al., De Novo Administration of Ropinirole and Bromocriptine Induces Less Dyskinesia than L-DOPA in the MPTP-treated Common Marmoset, Mov Dis, Mar, 13(2), 234-41, (1998)). To induce the full lesion, MPTP (2.0 mg/kg, sc) was administered once daily for 5 consecutive days. During MPTP-treatment and for the following six to eight weeks, animals were hand fed on a marmoset jelly diet until they had recovered sufficiently to feed themselves and their body weights had stabilised. All animals were determined responsive to L-DOPA administration prior to use. Testing commenced only when animals had recovered from the acute effects of MPTP treatment. In this study this was 70 days after commencement for MPTP treatment. Drugs: […] Doses are expressed as mg/kg free base. L-DOPA methyl ester (Sigma, UK) was dissolved in 10% sucrose in given in a volume of 2 ml/kg and administered by oral gavage. Carbidopa (Merck Sharp and Dohme, UK) was suspended in 10% sucrose in given in a volume of 2 ml/kg and administered directly into the mouth of the animal. Domperidone (Sigma, UK) was suspended in 10% sucrose in given in a volume of 2 ml/kg and administered directly into the mouth of the animal. […] Doses of L-DOPA were chosen to reflect a moderate and high dose of L-DOPA (7.5 and 12.5 mg/kg, po respectively). Procedure: […] A modified latin square design was employed with one week wash-out periods between treatments. Animals were assessed for locomotor activity and disability as described below. Assessment of locomotor activity: […] Each cage was equipped with 8 horizontally orientated infrared photocell emitters and their corresponding detectors arranged so as to permit maximum assessment of movement. […] Analysis and Statistics: […]

[4] = test system: dopamine D2/3 receptor; conditions: rat striatal slices; cited from earlier work
[5] = molecular target: T2, human recombinant dopamine D3 receptors (Homo sapiens, UniProt P35462); conditions: cited from earlier work
T2 construct: expressed in transfected cells

[6] = molecular target: T3, cloned human 5-HT1A receptors (Homo sapiens, UniProt P08908); conditions: forskolin induced cAMP accumulation; cited from earlier work
T3 construct: expressed in transfected cells
T3 sequence (P08908 1-422): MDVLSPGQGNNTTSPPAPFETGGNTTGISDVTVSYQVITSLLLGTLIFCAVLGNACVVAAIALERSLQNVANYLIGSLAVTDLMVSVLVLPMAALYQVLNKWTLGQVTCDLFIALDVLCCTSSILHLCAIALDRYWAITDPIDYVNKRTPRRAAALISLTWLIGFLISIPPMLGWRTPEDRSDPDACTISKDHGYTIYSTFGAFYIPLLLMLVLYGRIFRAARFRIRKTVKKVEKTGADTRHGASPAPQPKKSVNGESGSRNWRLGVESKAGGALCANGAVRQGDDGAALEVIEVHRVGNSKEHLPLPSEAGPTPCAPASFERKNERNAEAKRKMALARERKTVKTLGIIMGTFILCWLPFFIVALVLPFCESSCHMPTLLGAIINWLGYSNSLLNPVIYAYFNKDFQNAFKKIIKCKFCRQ

[7] = test system: MPTP-lesioned common marmosets; conditions: po; previous study; cited from earlier work
[8] = molecular target: T4, cloned human dopamine D2,L receptors (Homo sapiens, UniProt P14416); conditions: cited from earlier work
T4 construct: expressed in transfected cells

[9] = test system: MPTP-lesioned common marmosets; experiment: motor disability rating in MPTP-treated common marmosets; type: in vivo, Callithrix jacchus
Description: All experimental work was carried out in accordance with the Animals (Scientific Procedures Act) 1986, project license nr PPL 70/4986. Administration of MPTP: […] Research Biochemical International, UK) was dissolved in 0.9% sterile saline solution and administered by subcutaneous (sc) injection (Pearce, et al., De Novo Administration of Ropinirole and Bromocriptine Induces Less Dyskinesia than L-DOPA in the MPTP-treated Common Marmoset, Mov Dis, Mar, 13(2), 234-41, (1998)). To induce the full lesion, MPTP (2.0 mg/kg, sc) was administered once daily for 5 consecutive days. During MPTP-treatment and for the following six to eight weeks, animals were hand fed on a marmoset jelly diet until they had recovered sufficiently to feed themselves and their body weights had stabilised. All animals were determined responsive to L-DOPA administration prior to use. Testing commenced only when animals had recovered from the acute effects of MPTP treatment. In this study this was 70 days after commencement for MPTP treatment. Drugs: […] Doses are expressed as mg/kg free base. L-DOPA methyl ester (Sigma, UK) was dissolved in 10% sucrose in given in a volume of 2 ml/kg and administered by oral gavage. Carbidopa (Merck Sharp and Dohme, UK) was suspended in 10% sucrose in given in a volume of 2 ml/kg and administered directly into the mouth of the animal. Domperidone (Sigma, UK) was suspended in 10% sucrose in given in a volume of 2 ml/kg and administered directly into the mouth of the animal. […] Doses of L-DOPA were chosen to reflect a moderate and high dose of L-DOPA (7.5 and 12.5 mg/kg, po respectively). Procedure: […] A modified latin square design was employed with one week wash-out periods between treatments. Animals were assessed for locomotor activity and disability as described below. Rating of disability: The animals were monitored through a one-way mirror by experienced observers, blinded to treatment, and rated for the degree of motor dysfunction. […] Analysis and Statistics: […]

[10] = SLV308 0.26 mg/kg po, L-DOPA 7.5 and 12.5 mg/kg po
[11] = L-DOPA 7.5 and 12.5 mg/kg po, SLV308 0.26 mg/kg po

T2 sequence (P35462 whole entry): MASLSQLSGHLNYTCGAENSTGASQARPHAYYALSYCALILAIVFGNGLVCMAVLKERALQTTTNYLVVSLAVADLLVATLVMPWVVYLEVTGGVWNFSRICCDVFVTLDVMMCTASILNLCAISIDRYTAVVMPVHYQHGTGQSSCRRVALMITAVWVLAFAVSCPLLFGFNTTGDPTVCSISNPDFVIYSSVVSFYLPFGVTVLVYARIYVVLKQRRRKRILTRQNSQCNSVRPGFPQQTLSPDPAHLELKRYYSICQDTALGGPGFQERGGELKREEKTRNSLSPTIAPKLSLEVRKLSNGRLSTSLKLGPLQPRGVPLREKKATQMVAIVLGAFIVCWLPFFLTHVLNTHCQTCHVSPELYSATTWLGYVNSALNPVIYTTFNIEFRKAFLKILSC
T4 sequence (P14416 whole entry): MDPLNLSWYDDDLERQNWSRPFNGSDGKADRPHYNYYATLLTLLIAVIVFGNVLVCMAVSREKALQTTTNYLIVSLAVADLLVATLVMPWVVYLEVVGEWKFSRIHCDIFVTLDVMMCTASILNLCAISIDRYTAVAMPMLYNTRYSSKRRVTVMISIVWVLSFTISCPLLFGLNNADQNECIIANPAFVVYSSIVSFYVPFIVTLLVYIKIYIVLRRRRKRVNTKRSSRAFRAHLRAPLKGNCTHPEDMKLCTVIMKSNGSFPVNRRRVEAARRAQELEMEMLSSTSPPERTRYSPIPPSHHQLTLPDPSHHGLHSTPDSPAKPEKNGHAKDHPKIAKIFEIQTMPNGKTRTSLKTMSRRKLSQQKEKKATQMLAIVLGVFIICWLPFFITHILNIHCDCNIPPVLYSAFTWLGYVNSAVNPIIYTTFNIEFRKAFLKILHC
T1 sequence (P61169 whole entry): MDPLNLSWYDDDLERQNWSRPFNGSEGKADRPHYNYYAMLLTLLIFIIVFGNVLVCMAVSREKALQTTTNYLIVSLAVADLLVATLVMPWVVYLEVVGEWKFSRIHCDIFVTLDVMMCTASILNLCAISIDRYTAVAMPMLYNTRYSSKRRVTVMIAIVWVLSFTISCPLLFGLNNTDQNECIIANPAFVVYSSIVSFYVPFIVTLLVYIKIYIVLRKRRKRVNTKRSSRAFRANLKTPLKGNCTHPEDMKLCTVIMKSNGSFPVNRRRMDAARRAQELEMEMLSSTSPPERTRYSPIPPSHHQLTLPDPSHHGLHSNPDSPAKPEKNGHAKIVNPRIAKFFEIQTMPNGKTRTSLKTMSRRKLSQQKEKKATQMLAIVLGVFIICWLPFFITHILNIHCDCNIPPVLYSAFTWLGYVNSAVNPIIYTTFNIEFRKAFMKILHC

## C[N+]1([O-])CCN(c2cccc3[nH]c(=O)oc23)CC1 [N-oxide of SLV308]
[1]
  conversion to SLV308 in vivo: rapidly converted to SLV308

## CCN(CC)C(=O)N[C@H]1C[C@@H]2c3cccc4[nH]cc(c34)C[C@H]2N(C)C1 [terguride, reference compound]
[2]
  pA2: 10.3

## CN1CCN(c2cccc3[nH]c(=O)oc23)CC1 [SLV308, 7-[4-methyl-1-piperazinyl]-2(3H)-benzoxazolone mono hydrochloride]
[2]
  pA2: 8.5
[3]; SLV308 0.26 mg/kg po
  time of peak locomotor activity after treatment: 180 min
  time to increase of locomotor activity after administration: ≤ 30 min
[3]; [10]
  hyperactivity (3 times normal activity in naive marmosets): hyperactivity was not observed
[3]; SLV308 0.26 mg/kg po, whole observation period
  duration of locomotor activity: ≥ 7 h
[4]
  effect on forskolin stimulated accumulation of cAMP: concentration-dependently attenuated
[5]; antagonism of dopamine induction of [35S]GTPγS binding
  pA2: 9.0
[5]; induction of [35S]GTPγS binding
  pEC50: 9.2
[5]; partial agonist
  induction of [35S]GTPγS binding: 67 % that of dopamine
[6]
  pEC50: 6.3
  type of agonism at 5-HT1A: full 5-HT1A receptor agonist
[7]
  dose of optimal effect on locomotor activity and disability scores: 0.26 mg/kg
[8]; D2,L receptor antagonism
  pA2: 8.4
[8]; partial agonist
  efficacy on forskolin stimulated cAMP accumulation: 50%
[9]; [11]
  MPTP-induced akinesia and disability: reverse
  onset of reversal of disability: reduced disability scores immediately after administration
[9]; SLV308 0.26 mg/kg po alone
  median duration of activity (reversal of disability): 390 min
[9]; SLV308 0.26 mg/kg po alone or in combination with L-DOPA 7.5 or 12.5 mg/kg, versus vehicle p<0.001
  total disability scores over the 7 hours after administration: reduced
[9]; SLV308 0.26 mg/kg po, maximum score 18
  disability score at maximum improvement: 3

## N[C@@H](Cc1ccc(O)c(O)c1)C(=O)O [L-DOPA, 3,4-dihydroxyphenylalanine]
[3]; L-DOPA 7.5 and 12.5 mg/kg po
  duration of locomotor activity: 2.5 to 4 h
  onset of locomotor activity increase: immediate increase in locomotor activity
  time of peak locomotor activity after administration: 60 to 90 min
[3]; [10]
  hyperactivity (3 times normal activity in naive marmosets): produced periods of hyperactivity
[9]; L-DOPA 7.5 mg/kg po
  duration of reversal of disability: 150 min
[9]; L-DOPA 12.5 mg/kg po
  duration of reversal of disability: 180 min
[9]; L-DOPA 7.5 and 12.5 mg/kg po
  time of peak reversal of disability after administration: 90 min
[9]; [11]
  MPTP-induced akinesia and disability: reverse
  onset of reversal of disability: immediate reversal of disability
[9]; L-DOPA 7.5 and 12.5 mg/kg po, maximum score 18
  disability score at peak reversal: 2.5

From patent US7915262B2, “Combination preparations comprising SLV308 and a dopamine agonist” (Solvay Pharmaceuticals B.V., priority 2006, dated 2011)
